Measured values as given in patent US8892197B2, “Method and apparatus to control conduction through the heart to treat cardiac conditions” (Medtronic, Inc., priority 2005, dated 2014).

Tests used:
AVN conduction = assay: AV block duration after ACH bolus, direct AVN injection vs. intravenous, anesthetized canines; format: in vivo
Excerpt: (§1) This study evaluated the effect of locally administered acetylcholine (ACH) on AVN conduction and refractoriness properties during sinus rhythm and AF. Canines (n=7) were anesthetized, and instrumented to assess atrial and ventricular electrophysiology as well as arterial blood pressure. A custom drug delivery catheter was fixed into the AVN region using a combination of standard electrophysiological mapping techniques and image guided therapy via a cardiac navigation system.

[1] = test system: AVN conduction and refractoriness; assay: Incremental ACH infusion into the AVN: ventricular rate during electrically induced AF, AVN refractoriness, intervals, blood pressure; format: in vivo, Canines; conditions: for Ventricular rate during electrically induced AF: infusion into AVN, decreased from 182±32
Excerpt: as §1
Subsequently, incremental doses of ACH starting at 10 ug/min were infused into the AVN until complete atrioventricular heart block (AVB) was observed.

[2] = Intravenous Bolus (n = 5), identical dose

In the case of `CC(=O)OCC[N+](C)(C)C` [ACH, acetylcholine], the “AV Block III duration” value (AVN conduction; Direct AVN Bolus (n = 6)) is reported as 12.30 ± 4.72 min, the “Overall AV Block duration (AV block I, II and III)” value (AVN conduction; Direct AVN Bolus (n = 6)) is reported as 41.19 ± 27.14 min and the “AV Block III duration” value (AVN conduction; [2]) is reported as 0.00 ± 0.00 min. The “Overall AV Block duration (AV block I, II and III)” value (AVN conduction; [2]) was 0.31 ± 0.43 min, the “PP intervals, HV intervals and blood pressure” value ([1]; ACH dose producing first AVB) was “remained unchanged” and the “Time to full reversal of observed effects after stopping ACH infusion” value ([1]; after stopping infusion into AVN) was ≤ 20 min. The “Ventricular rate during electrically induced AF” value ([1]; dosage inducing first degree AVB, p<0.05) was 77±28 bpm, the “Ventricular rate during electrically induced AF” value ([1]; dosage inducing third degree AVB, p<0.05) was 28±8 bpm and the “AVN effective refractory period (ERP)” value ([1]; first degree AVB dose, pacing cycle length 400 msec, increased from 186±37, p=0.06) was 282 ± 33 ms. It also gave a Wenckebach cycle length ([1]; first degree AVB dose, increased from 271±29, p<0.05) of 378 ± 58 ms.
